Structures are written as SMILES. Where only a bound is given, the exact number is not on record here.

Experimental findings from patent US10654816B2, “Compounds and compositions for treating conditions associated with NLRP activity” (NOVARTIS INFLAMMASOME RESEARCH, INC., priority 2017, dated 2020) are described below.

The first test has as its system IL-1β production in PMA-differentiated THP-1 cells. Kind of test: IL-1β production in PMA-differentiated THP-1 cells stimulated with gramicidin (hTHP-1 assay, HTRF readout; Procedures 1-3). Type of test: cell-based, human. Conditions: Homo sapiens, THP-1, hTHP-1 assay containing 2% fetal bovine serum; average; class symbols; read-out: hTHP-1 IC50 (Average IC50 of compounds in hTHP-1 assay). Summed up:
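PMA-differentiated (20 ng/ml, 16-18 h) THP-1 cells in RPMI with 2% FBS, 50,000 cells/well, preincubated 1 h with compound (final 0.0017-100 μM, 0.37% DMSO), then stimulated with 5 μM gramicidin for 2 h. IL-1β in cell-free supernatant measured by HTRF (620/668 nm).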
As for `NS(=O)(=NC(=O)Nc1c2c(cc3c1CCC3)CCC2)c1ccc(CN2CCCC2=O)cc1` (stereo not shown) [Example 244], the concentration for half-maximal inhibition (IC50) lay within 5 to 30 µM.

For the compound `Cc1ccc(-c2ccc(NC(=O)N=S(N)(=O)c3ncc(C(C)(C)O)s3)c3c2CCC3)cc1C` (stereo not shown) [Example 426, 1-{Amino[5-(2-hydroxypropan-2-yl)-1,3-thiazol-2-yl]oxo-λ^6-sulfanylidene}-3-[7-(3,4-dimethylphenyl)-2,3-dihydro-1H-inden-4-yl]urea], the IC50 lay in the range of 5 to 30 µM.

With `Cc1cc(S(N)(=O)=NC(=O)Nc2c(C(C)C)cc(F)cc2C(C)C)c(C)o1` (stereo not shown) [Example 217, N′-((4-fluoro-2,6-diisopropylphenyl)carbamoyl)-2,5-dimethylfuran-3-sulfonimidamide], the IC50 lay in the range of 5 to 30 µM.

In the case of `NS(=O)(=NC(=O)Nc1c2c(cc3c1CCC3)CCC2)c1ccc(CN2CCC2)cc1` (stereo not shown) [Example 237, 4-(Azetidin-1-ylmethyl)-N′-(1,2,3,5,6,7-hexahydro-s-indacen-4-ylcarbamoyl)benzenesulfonimidamide], the IC50 was 1 to 5 µM.

Consider `CC(C)c1cc(F)cc(C(C)C)c1NC(=O)N=S(N)(=O)c1cccc(S(C)(=O)=O)c1` (stereo not shown) [Example 63, N′-((4-fluoro-2,6-diisopropylphenyl)carbaoyl)-3-(methylsulfonyl)benzenesulfonim idamide], for which the half-inhibitory concentration (IC50) was in the range of 1 to 5 µM.

In the case of `CC(C)c1cc(F)cc(C(C)C)c1NC(=O)N=S(N)(=O)c1cccc(C(C)(C)O)c1` (stereo not shown) [Example 22, N′-(4-fluoro-2,6-diisopropylphenylcarbamoyl)-3-(2-hydroxypropan-2-yl)benzenesulfonimidamide], the IC50 was 1 to 5 µM.

As to `CC(C)c1cc(OC(F)F)cc(C2CC2)c1NC(=O)N=S(N)(=O)c1ccc(CN(C)C)cc1` (single isomer, unassigned) [Example 135, (R)- or (S)-N′-(2-cyclopropyl-4-(difluoromethoxy)-6-isopropylphenylcarbamoyl)-4-((dimethylamino)methyl)benzenesulfonimidamide], the concentration for half-maximal inhibition (IC50) is 1 to 5 µM.

In the case of `NS(=O)(=NC(=O)Nc1c2c(cc3c1CCC3)CCC2)c1ccc(CN2CCC(F)(F)C2)cc1` (stereo not shown) [Example 235, 4-((3,3-Difluoropyrrolidin-1-yl)methyl)-N′-(1,2,3,5,6,7-hexahydro-s-indacen-4-ylcarbamoyl)benzenesulfonimidamide], the IC50 was 1 to 5 µM.

On to `NCc1ccc(S(N)(=O)=NC(=O)Nc2c3c(cc4c2CCC4)CCC3)cc1` (stereo not shown) [Example 243, 4-(Aminomethyl)-N′-(1,2,3,5,6,7-hexahydro-s-indacen-4-ylcarbamoyl)benzenesulfonimidamide], for which the IC50 lay within 1 to 5 µM.

Take `CN1CCc2cc(S(N)(=O)=NC(=O)Nc3c4c(cc5c3CCC5)CCC4)ccc2C1` (stereo not shown) [Example 270, N′-((1,2,3,5,6,7-hexahydro-s-indacen-4-yl)carbamoyl)-2-methyl-1,2,3,4-tetrahydroisoquinoline-6-sulfonimidamide]: the concentration for half-maximal inhibition (IC50) lay within 1 to 5 µM.

In the case of `CN(C)Cc1ccc(S(N)(=O)=NC(=O)Nc2c3c(cc4c2CCC4)CCC3)cc1F` (stereo not shown) [Example 280, 4-((dimethylamino)methyl)-3-fluoro-N′-((1,2,3,5,6,7-hexahydro-s-indacen-4-yl)carbamoyl)benzenesulfonimidamide], the concentration for half-maximal inhibition (IC50) was in the range of 0.2 to 1 µM.

With `CC(C)c1cc(C#N)cc(C(C)C)c1NC(=O)NS(=N)(=O)c1sc(C(C)(C)O)nc1CO` (stereo not shown) [Example 70, N-((4-cyano-2,6-diisopropylphenyl)carbaoyl)-4-(hydroxymethyl)-2-(2-hydroxypropan-2-yl)thiazole-5-sulfonimidamide], the 50% inhibitory concentration (IC50) fell in the range of 1 to 5 µM.

For the compound `Cc1oc(S(N)(=O)=NC(=O)Nc2c3c(cc4c2CCC4)CCC3)cc1C(C)(C)O` (stereo not shown) [Example 1, N′-(1,2,3,5,6,7-hexahydro-s-indacen-4-ylcarbamoyl)-4-(2-hydroxypropan-2-yl)-5-methylfuran-2-sulfonimidamide], the 50% inhibitory concentration (IC50) was 0.008 to 0.04 µM.

Consider `COC1CN(Cc2ccc(S(N)(=O)=NC(=O)Nc3c4c(cc5c3CCC5)CCC4)cc2)C1` (single isomer, unassigned) [Example 379, (R) or (S)-N′-((1,2,3,5,6,7-hexahydro-s-indacen-4-yl)carbamoyl)-4-((3-methoxyazetidin-1-yl)methyl)benzene-sulfonimidamide], for which the IC50 fell in the range of 1 to 5 µM.

Regarding `CC(C)(O)c1cccc(S(N)(=O)=NC(=O)Nc2c3c(cc4c2CCC4)CCC3)c1` (stereo not shown) [Example 46, N′-(1,2,3,5,6,7-hexahydro-s-indacen-4-ylcarbamoyl)-3-(2-hydroxypropan-2-yl)benzenesulfonimidamide], the IC50 lay within 1 to 5 µM.

Consider `NS(=O)(=NC(=O)Nc1c2c(cc3c1CCC3)CCC2)c1ccc(CO)cc1` (stereo not shown) [Example 233, 1-[amino[4-(hydroxymethyl)phenyl]oxo-λ^6-sulfanylidene]-3-(1,2,3,5,6,7-hexahydro-s-indacen-4-yl)urea], for which the concentration for half-maximal inhibition (IC50) lay in the range of 1 to 5 µM.

Turning to `CC(C)(O)c1csc(S(N)(=O)=NC(=O)Nc2c3c(cc4c2CCC4)CCC3)n1` (stereo not shown) [Example 77, N′-(1,2,3,5,6,7-hexahydro-s-indacen-4-ylcarbamoyl)-4-(2-hydroxypropan-2-yl)thiazole-2-sulfonimidamide], the half-inhibitory concentration (IC50) is […].

For the compound `CC(C)c1cc(F)cc(C(C)C)c1NC(=O)N=S(N)(=O)c1cnc2c(cnn2C)c1` (stereo not shown) [Example 430, 3-[amino({1-methyl-1H-pyrazolo[3,4-b]pyridin-5-yl})oxo-λ^6-sulfanylidene]-1-[4-fluoro-2,6-bis(propan-2-yl)phenyl]urea], the IC50 was 5 to 30 µM.

As for `CN1CCc2ccc(S(=N)(=O)NC(=O)Nc3c4c(cc5c3CCC5)CCC4)cc2C1` (stereo not shown) [Example 271, N-(1,2,3,5,6,7-hexahydro-s-indacen-4-ylcarbamoyl)-2-methyl-1,2,3,4-tetrahydroisoquinoline-7-sulfonimidamide], the IC50 is 1 to 5 µM.

In the case of `Cc1sc(S(N)(=O)=NC(=O)Nc2c3c(cc4c2CCC4)CCC3)cc1C(C)(C)O` (stereo not shown) [Example 12, N′-(1,2,3,5,6,7-hexahydro-s-indacen-4-ylcarbamoyl)-4-(2-hydroxypropan-2-yl)-5-methylthiophene-2-sulfonimidamide], the IC50 is 0.04 to 0.2 µM.

Regarding `CCc1ccc2cnn(C)c2c1NC(=O)N=S(N)(=O)c1ncc(C(C)(C)O)s1` (stereo not shown) [Example 255, N′-((6-ethyl-1-methyl-1H-indazol-7-yl)carbamoyl)-5-(2-hydroxypropan-2-yl)thiazole-2-sulfonimidamide], the half-inhibitory concentration (IC50) lay within 5 to 30 µM.

For `C#CCCC(=O)N(C)Cc1ccc(S(N)(=O)=NC(=O)Nc2c3c(cc4c2CCC4)CCC3)cc1` (single isomer, unassigned) [Example 312, (S) or (R)-N-(4-(N′-((1,2,3,5,6,7-hexahydro-s-indacen-4-yl)carbamoyl)sulfamid-imidoyl)benzyl)-N-methylpent-4-ynamide], the concentration for half-maximal inhibition (IC50) was 1 to 5 µM.

For `CC(C)c1cc(C#N)cc(C(C)C)c1NC(=O)N=S(N)(=O)c1ccc(C(C)(C)O)c(CO)c1` (stereo not shown) [Example 68, N′-((4-cyano-2,6-diisopropylphenyl)carbaoyl)-3-(hydroxymethyl)-4-(2-hydroxypropan-2-yl)benzenesulfonimidamide], the IC50 was 1 to 5 µM.

The test is the same for the next values; noted with them: Homo sapiens, THP-1, hTHP-1 assay containing 2% fetal bovine serum; average; given as bound; read-out: hTHP-1 IC50 (Average IC50 of compounds in hTHP-1 assay).
Turning to `CC(C)c1cc(C#N)cc(C(C)C)c1NC(=O)N=S(N)(=O)c1ccc(S(C)(=O)=O)cc1` (single isomer, unassigned) [Example 197, (R)- or (S)-N′-((4-cyano-2,6-diisopropylphenyl)carbamoyl)-4-(methyl-sulfonyl)benzenesulfonimidamide], the IC50 was greater than 30 µM.

As for `Cn1ncc2cc(S(N)(=O)=NC(=O)Nc3c4c(cc5c3CCC5)CCC4)ccc21` (single isomer, unassigned) [Example 398, (S) or (R)-N′-((1,2,3,5,6,7-hexahydro-s-indacen-4-yl)carbamoyl)-1-methyl-1H-indazole-5-sulfonimidamide], the IC50 is greater than 30 µM.

As to `CN(Cc1ccc(S(N)(=O)=NC(=O)Nc2c3c(cc4c2CCC4)CCC3)cc1)C(=O)CCC(=O)O` (stereo not shown) [Example 252], the IC50 is greater than 30 µM.

Take `CC(C)(O)c1ncc(S(N)(=O)=NC(=O)Nc2c3c(cc4c2C(O)CC4)CCC3)s1` (single isomer, unassigned) [Example 369, (S, R/S) or (R, R/S)-N′-((3-hydroxy-1,2,3,5,6,7-hexahydro-s-indacen-4-yl)carbamoyl)-2-(2-hydroxypropan-2-yl)thiazole-5-sulfonimidamide]: the concentration for half-maximal inhibition (IC50) was greater than 30 µM.

With `Cc1cc(NC(=O)N=S(N)(=O)c2ccc(C(C)(C)O)s2)cc(C)n1` (stereo not shown) [compound 78, N-((2,6-dimethylpyridin-4-yl)carbamoyl)-5-(2-hydroxypropan-2-yl)thiophene-2-sulfonimidamide], the half-inhibitory concentration (IC50) was greater than 30 µM.

Still in this test, the particulars now being: hTHP-1 assay containing 2% fetal bovine serum; average; class symbols; read-out: hTHP-1 IC50 (Average IC50 of compounds in hTHP-1 assay).
For the compound `CN(C(=O)N=S(N)(=O)c1cnc(C(C)(C)O)s1)c1c2c(cc3c1CCC3)CCC2` (stereo not shown) [Example 248, N′-((1,2,3,5,6,7-hexahydro-s-indacen-4-yl)(methyl)carbamoyl)-2-(2-hydroxypropan-2-yl) thiazole-5-sulfonimidamide], the IC50 fell in the range of 5 to 30 µM.

For the compound `C#CCCC(=O)N(C)Cc1ccc(S(N)(=O)=NC(=O)Nc2c3c(cc4c2CCC4)CCC3)cc1` (single isomer, unassigned) [Example 313, (R) or (S)-N-(4-(N′-((1,2,3,5,6,7-hexahydro-s-indacen-4-yl)carbamoyl)sulfamid-imidoyl)benzyl)-N-methylpent-4-ynamide], the half-inhibitory concentration (IC50) lay within 1 to 5 µM.

The same test, now with this note: hTHP-1 assay containing 2% fetal bovine serum; average; given as bound; read-out: hTHP-1 IC50 (Average IC50 of compounds in hTHP-1 assay).
In the case of `CNS(=O)(=NC(=O)Nc1c2c(cc3c1CCC3)CCC2)c1ccc(CN(C)C)cc1` (single isomer, unassigned) [Example 384, (S) or (R)-4-((dimethylamino)methyl)-N′-((1,2,3,5,6,7-hexahydro-s-indacen-4-yl)carbamoyl)-N-methylbenzene-sulfonimidamide], the IC50 is greater than 30 µM.

Broadly, the IC50 is the midpoint of a concentration-inhibition curve.
